According to ChEMBL document CHEMBL3431459, “Roche carnitine palmitoyltransferase modulator screening data (supplementary data associated with the publication CHEMBL2216752)”:
Values after ≈ are worked out from the molar mass of the structure shown.

Tests used:
[1] = molecular target: T1, Carnitine O-palmitoyltransferase 1, liver isoform (Homo sapiens, UniProt P50416); assay: (§1) SUPPLEMENTARY: Inhibition of Carnitine palmitoyltransferase 1, liver isoform
T1 sequence (P50416 whole entry): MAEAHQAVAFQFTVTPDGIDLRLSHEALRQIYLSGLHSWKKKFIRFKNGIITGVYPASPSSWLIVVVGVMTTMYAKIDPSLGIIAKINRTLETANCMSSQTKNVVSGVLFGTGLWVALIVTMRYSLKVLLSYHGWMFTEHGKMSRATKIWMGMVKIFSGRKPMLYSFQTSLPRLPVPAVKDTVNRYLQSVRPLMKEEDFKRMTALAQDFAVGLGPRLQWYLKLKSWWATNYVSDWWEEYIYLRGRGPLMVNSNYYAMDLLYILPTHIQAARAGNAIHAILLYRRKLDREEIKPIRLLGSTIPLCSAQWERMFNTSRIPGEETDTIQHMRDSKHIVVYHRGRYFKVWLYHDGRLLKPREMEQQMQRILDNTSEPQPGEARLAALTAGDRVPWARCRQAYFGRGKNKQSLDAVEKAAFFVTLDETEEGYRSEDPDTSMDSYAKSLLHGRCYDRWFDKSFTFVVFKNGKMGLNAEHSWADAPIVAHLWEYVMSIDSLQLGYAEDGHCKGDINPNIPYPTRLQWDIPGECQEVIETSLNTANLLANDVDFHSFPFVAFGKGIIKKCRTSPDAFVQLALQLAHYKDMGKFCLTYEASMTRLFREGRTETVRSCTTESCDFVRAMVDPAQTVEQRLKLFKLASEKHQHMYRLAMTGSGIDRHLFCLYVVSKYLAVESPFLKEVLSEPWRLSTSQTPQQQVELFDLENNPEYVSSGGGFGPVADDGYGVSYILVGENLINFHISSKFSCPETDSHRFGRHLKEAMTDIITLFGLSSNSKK

[2] = molecular target: T2, Carnitine O-palmitoyltransferase 1, liver isoform (Rattus norvegicus, UniProt P32198); assay: as §1
T2 sequence (P32198 whole entry): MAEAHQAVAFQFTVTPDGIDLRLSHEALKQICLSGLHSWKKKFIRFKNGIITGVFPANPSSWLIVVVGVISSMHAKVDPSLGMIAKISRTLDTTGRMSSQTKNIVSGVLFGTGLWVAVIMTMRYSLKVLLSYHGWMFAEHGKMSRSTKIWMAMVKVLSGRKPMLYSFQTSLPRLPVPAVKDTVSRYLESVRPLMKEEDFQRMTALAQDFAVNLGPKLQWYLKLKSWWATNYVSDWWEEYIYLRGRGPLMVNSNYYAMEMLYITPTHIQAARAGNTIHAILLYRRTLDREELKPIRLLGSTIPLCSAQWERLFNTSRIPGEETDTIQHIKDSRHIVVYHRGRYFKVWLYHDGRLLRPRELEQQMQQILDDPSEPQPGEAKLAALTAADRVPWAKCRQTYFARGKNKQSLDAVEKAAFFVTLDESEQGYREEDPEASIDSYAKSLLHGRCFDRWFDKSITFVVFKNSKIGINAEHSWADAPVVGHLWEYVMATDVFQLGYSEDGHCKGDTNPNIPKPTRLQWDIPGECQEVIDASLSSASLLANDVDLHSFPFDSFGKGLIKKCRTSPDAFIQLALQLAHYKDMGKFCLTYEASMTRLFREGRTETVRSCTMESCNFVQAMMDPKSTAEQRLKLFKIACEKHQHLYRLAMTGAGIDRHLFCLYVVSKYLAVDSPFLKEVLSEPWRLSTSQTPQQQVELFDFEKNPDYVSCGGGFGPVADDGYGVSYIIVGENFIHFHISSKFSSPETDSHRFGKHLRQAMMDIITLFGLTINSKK

[3] = SUPPLEMENTARY: PAMPA permeability assay; type: physicochemical; conditions: read-out: Permeability
[4] = SUPPLEMENTARY: Lipophilicity (log D) Determination by high-throughput shake-flask; type: physicochemical; conditions: octanol/water
[5] = SUPPLEMENTARY: Lyophilisation Solubility Assay (LYSA); type: physicochemical; conditions: read-out: Kinetic_solubility
[6] = molecular target: T3, Carnitine O-palmitoyltransferase 1, muscle isoform (Homo sapiens, UniProt Q92523); assay: SUPPLEMENTARY: Inhibition of Carnitine palmitoyltransferase 1, muscle isoform; set-up: species or system Muscle tissue
T3 sequence (Q92523 whole entry): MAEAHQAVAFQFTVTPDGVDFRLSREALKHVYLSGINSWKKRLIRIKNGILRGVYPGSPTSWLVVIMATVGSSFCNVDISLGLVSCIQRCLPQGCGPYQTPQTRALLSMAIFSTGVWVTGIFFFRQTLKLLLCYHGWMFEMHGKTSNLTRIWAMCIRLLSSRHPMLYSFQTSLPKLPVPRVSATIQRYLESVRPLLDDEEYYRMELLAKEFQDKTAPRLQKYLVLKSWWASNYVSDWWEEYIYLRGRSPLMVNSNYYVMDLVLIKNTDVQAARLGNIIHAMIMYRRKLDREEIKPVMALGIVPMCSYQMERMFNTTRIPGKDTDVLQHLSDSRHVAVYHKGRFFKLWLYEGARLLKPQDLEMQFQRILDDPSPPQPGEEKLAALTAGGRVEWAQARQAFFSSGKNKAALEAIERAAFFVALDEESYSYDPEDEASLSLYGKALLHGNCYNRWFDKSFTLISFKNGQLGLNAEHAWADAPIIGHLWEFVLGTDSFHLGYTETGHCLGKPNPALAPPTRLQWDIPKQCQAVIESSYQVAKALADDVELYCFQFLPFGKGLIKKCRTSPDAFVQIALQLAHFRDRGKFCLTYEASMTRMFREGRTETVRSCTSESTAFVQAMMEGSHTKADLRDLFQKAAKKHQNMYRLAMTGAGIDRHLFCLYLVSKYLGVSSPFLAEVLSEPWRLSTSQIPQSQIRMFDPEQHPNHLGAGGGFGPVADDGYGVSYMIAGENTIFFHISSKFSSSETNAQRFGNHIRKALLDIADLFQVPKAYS

[7] = molecular target: T4, Carnitine O-palmitoyltransferase 2, mitochondrial (Homo sapiens, UniProt P23786); assay: (§2) SUPPLEMENTARY: Inhibition of Carnitine palmitoyltransferase 2
T4 sequence (P23786 whole entry): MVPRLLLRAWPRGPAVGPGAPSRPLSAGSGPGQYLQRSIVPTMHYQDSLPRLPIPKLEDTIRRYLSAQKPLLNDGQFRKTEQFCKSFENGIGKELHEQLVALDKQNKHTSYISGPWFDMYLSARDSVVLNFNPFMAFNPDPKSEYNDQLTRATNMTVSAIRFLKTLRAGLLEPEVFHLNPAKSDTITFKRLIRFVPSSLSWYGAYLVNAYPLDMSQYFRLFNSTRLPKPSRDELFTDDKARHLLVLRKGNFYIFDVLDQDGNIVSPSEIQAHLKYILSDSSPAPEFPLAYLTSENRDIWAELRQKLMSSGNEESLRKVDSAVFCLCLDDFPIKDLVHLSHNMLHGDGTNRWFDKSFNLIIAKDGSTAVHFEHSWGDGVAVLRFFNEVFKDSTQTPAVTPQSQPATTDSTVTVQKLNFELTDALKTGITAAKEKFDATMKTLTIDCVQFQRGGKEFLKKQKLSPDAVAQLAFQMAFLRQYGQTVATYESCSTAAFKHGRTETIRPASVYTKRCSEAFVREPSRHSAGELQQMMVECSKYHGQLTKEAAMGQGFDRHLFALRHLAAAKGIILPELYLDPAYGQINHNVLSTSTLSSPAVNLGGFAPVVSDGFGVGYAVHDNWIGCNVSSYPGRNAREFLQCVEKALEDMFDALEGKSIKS

[8] = molecular target: T5, Carnitine O-palmitoyltransferase 2, mitochondrial (Rattus norvegicus, UniProt P18886); assay: as §2
T5 sequence (P18886 whole entry): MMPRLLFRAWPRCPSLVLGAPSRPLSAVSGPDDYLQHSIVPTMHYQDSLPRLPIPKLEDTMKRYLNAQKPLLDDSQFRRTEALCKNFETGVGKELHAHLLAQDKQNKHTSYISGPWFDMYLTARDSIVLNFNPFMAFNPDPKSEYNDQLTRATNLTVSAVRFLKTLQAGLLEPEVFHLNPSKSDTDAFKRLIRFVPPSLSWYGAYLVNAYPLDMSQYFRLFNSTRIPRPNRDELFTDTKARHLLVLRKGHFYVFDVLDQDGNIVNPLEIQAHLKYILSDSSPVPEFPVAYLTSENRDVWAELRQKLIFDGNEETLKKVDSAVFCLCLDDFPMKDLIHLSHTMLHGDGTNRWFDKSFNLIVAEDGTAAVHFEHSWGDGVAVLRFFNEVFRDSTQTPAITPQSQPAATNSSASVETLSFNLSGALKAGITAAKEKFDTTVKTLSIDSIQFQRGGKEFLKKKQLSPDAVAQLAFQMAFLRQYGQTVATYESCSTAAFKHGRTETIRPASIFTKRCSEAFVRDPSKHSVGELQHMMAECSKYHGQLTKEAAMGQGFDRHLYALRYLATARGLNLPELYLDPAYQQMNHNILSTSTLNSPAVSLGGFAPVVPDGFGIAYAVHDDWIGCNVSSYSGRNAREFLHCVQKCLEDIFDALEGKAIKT

Row | SMILES | IC50 [1] | IC50 [2] | Papp [3] | logD [4] | solubility kinetic [5] | IC50 [6] | IC50 [7] | IC50 [8]
1 | O=C1CCCN1c1cccc(-c2nc([C@H]3CCCCN3C(=O)COc3ccccc3)no2)c1 | 142 nM | 165 nM | 2.33 ×10⁻⁶ cm/s | 3.07 | 9 µg/mL (≈ 20.2 µM) | > 100000 nM | 38400 nM | > 100000 nM
2 | COc1ccc(Cl)cc1CN1C(=O)OC(C)(C)c2ccc(C(=O)Nc3nc(CC(=O)O)cs3)cc21 | 58.7 nM | 59.7 nM | 1.93 ×10⁻⁶ cm/s | 1.17 | 150 µg/mL (≈ 291 µM) | 1010 nM | > 100000 nM | > 100000 nM
3 | O=C(O)Cc1ccc(NC(=O)c2ccc3ccn(S(=O)(=O)c4cccc(Cl)c4)c3c2)cc1 | 66.8 nM | 86.2 nM | 2.24 ×10⁻⁶ cm/s | 1.3 | 17 µg/mL (≈ 36.3 µM) | 1350 nM | > 100000 nM | > 100000 nM
4 | COc1ccc(Cl)cc1S(=O)(=O)N1CCOc2c(Cl)cc(C(=O)Nc3ncc(CC(=O)O)s3)cc21 | 68.8 nM | 37.2 nM | 3.12 ×10⁻⁶ cm/s | 2.27 | 5 µg/mL (≈ 8.95 µM) | 685 nM | > 100000 nM | > 100000 nM
5 | O=C(c1cc(-c2noc([C@H]3CCCCN3C(=O)COc3ccccc3)n2)ccn1)N1CCOCC1 | 80.4 nM | 899 nM | 5.89 ×10⁻⁶ cm/s | 1.75 | > 523 µg/mL | > 100000 nM | > 100000 nM | 89700 nM
6 | CC(=O)NCc1cccc(-c2nc([C@H]3CCCCN3C(=O)COc3ccccc3)no2)c1 | 99.3 nM | 308 nM | 2.98 ×10⁻⁶ cm/s | 2.64 | 127 µg/mL (≈ 292 µM) | > 100000 nM | 29100 nM | > 100000 nM
7 | O=C(COc1ccccc1)N1CCCC[C@@H]1c1nc(-c2ccc3[nH]ncc3c2)n[nH]1 | 87.4 nM | 683 nM | 1.64 ×10⁻⁶ cm/s | 2.71 | 53 µg/mL (≈ 132 µM) | > 100000 nM | 13900 nM | 61500 nM
8 | CN1CCN(c2cc3c(cc2Cl)CN(C(=O)[C@H]2CCCCN2C(=O)COc2ccccc2)C3)CC1 | 87.8 nM | 66.6 nM | 3.16 ×10⁻⁶ cm/s | 2.38 | 242 µg/mL (≈ 487 µM) | > 100000 nM | 1990 nM | 2670 nM
9 | COc1ccc(Cl)cc1Cc1cn(C)c2ccc(C(=O)Nc3ccc(CC(=O)O)cc3)cc12 | 130 nM | 119 nM | 0.86 ×10⁻⁶ cm/s | 2.7 | 44 µg/mL (≈ 95 µM) | 2470 nM | > 100000 nM | > 100000 nM
10 | COc1ccc(Cl)cc1S(=O)(=O)N1CCOc2ncc(C(=O)Nc3ccc(C(=O)O)cc3)cc21 | 328 nM | 169 nM | 0.74 ×10⁻⁶ cm/s | 0.2 | 47 µg/mL (≈ 93.3 µM) | > 100000 nM | > 100000 nM | > 100000 nM
11 | CC(=O)c1ccc(-c2nc([C@H]3CCCCN3C(=O)COc3ccccc3)no2)cc1 | 51.4 nM | 30.4 nM | 1.54 ×10⁻⁶ cm/s | 3.25 | 6 µg/mL (≈ 14.8 µM) | > 100000 nM | 4770 nM | > 100000 nM
12 | Nc1cc(-c2n[nH]c([C@H]3CCCCN3C(=O)COc3ccccc3)n2)ccn1 | 123 nM | 1330 nM | 2.77 ×10⁻⁶ cm/s | 1.95 | 281 µg/mL (≈ 743 µM) | > 100000 nM | > 100000 nM | > 100000 nM
13 | NC(=O)c1ccc(C#C[C@H]2CCCCN2C(=O)COc2ccccc2)cc1 | 75.8 nM | 169 nM | 2.96 ×10⁻⁶ cm/s | 2.85 | 18 µg/mL (≈ 49.7 µM) | 9880 nM | 42100 nM | > 100000 nM
14 | COc1ccc(Cl)cc1S(=O)(=O)N1CC(C(=O)O)Oc2ccc(C(=O)Nc3ccccc3F)cc21 (configuration not stated) | 218 nM | 169 nM | 0.38 ×10⁻⁶ cm/s | -0.49 | > 617 µg/mL | > 100000 nM | > 100000 nM | > 100000 nM
